In US6841657B2, “Inhibitors of HIV membrane fusion” (priority 1998, dated 2005):
Positions of bridges follow the written chain, without caps; N, C: chain ends. Non-standard residues stand in square brackets, D forms with d.

Columns and labels:
[1] = system: recombinant luciferase-expressing HIV-1; assay type: cell-based; conditions: infectivity assay
Protocol: The potency of C34 peptides in inhibiting viral infection and the HIV-1 infection inhibitory activity of the D-peptides were assayed using recombinant luciferase-expressing HIV-1 (Chen, B. K. et al., J. Virol., 68:654 (1994); Malashkevich, V. N., et al., Proc. Natl. Acad. Sci., USA, 95:9134 (1998)).
The apparent melting temperatures (Tm) were estimated from the thermal dependence of the CD signal at 222 nm. Inhibition of viral entry was measured in a cell-culture infection assay using recombinant luciferase-expressing HIV-1. Inhibition of cell-cell fusion was measured in a syncytium assay. The means and standard errors are from triplicate trials.

[2] = system: hydrophobic pocket of IQN17 (gp41); experiment: 1H NMR assay of binding to the IQN17 hydrophobic pocket; set-up: species or system HIV-1; conditions: 1:1 complex with IQN17, 25° C., 100 mM NaCl, 50 mM sodium phosphate pH 7.5, D2O
Description: NMR experiments were used to assay the binding of each D-peptide to IQN17. The single tryptophan residue of IQN17 (denoted Trp-571) provides an excellent probe of specific binding to the hydrophobic pocket of gp41. […] To test a compound for binding to the gp41 pocket, two one-dimensional ^1H NMR measurements were made on samples in deuterated buffers. First, a reference (control) spectrum of IQN17 was taken, identifying the Trp571 chemical shifts in the unbound form. A second spectrum was acquired on a sample containing both IQN17 and the compound in question. An optional third spectrum of the D-peptide (or other small molecule, or mix of molecules) was also taken. ^1H NMR experiments were performed on a Bruker AMX 500 spectrometer. Data was processed in Felix 98.0 (MSI) on Silicon Graphics computers, and all spectra were referenced to DSS. All experiments were performed at 25° C. in 100 mM NaCl, 50 mM sodium phosphate (pH 7.5). All buffers used were >99.7% D2O, to remove overlapping resonances from exchangeable backbone and side chain protons. Solute concentrations ranged from 0.3-1.0 mM for individual peptides, 0.8-1.0 mM for 1:1 commplexes of IQN17 with each D-peptide.
Simple binding of two or more components is expected to result both in broader peaks (due to the increased size of the complex) and in changes in chemical shifts (due to the different chemical environments experienced by nuclei in free and bound forms). Specific binding to the hydrophobic pocket is indicated by a change in the Trp-571 chemical shifts, as well as by a broadening of peaks. Binding can also be indicated by similar changes in the chemical shifts and peak widths of the molecule (peptides and small organic molecules, for example) assayed. […] All IQN17/D-peptide complexes studied gave similar results, though varying in the degree of chemical shift dispersion (FIG. 9B). Thus, binding was indicated in all cases.
To confirm that the strongly upfield-shifted peaks all correspond to a single sidechain (almost certainly Trp-571), two-dimensional NMR (TOCSY) experiments were performed on each of the IQN17/D-peptide complexes. As expected, the TOCSY experiments indicate that in each complex, the strongly upfield-shifted resonances all belong to the same aromatic side chain, identified as a group of four scalar-coupled protons. For several of the complexes studied, NOESY experiments also indicate contact between this sidechain and other (unassigned) aromatic groups, as expected from the IQN17/D10pep1 structure. Not all of the potential NOE crosspeaks could be resolved, due to intense spectral overlap in the 6.8-7.6 ppm region. 2D NOESY and TOCSY experiments as described in J. Cavanaugh, W. J. Fairbrother, A. G. Palmer, N. J. Skelton, Protein NMR Spectroscopy: Principles and Practice (1996) were performed on samples of IQN17 and of each complex, with mixing times ranging between 30-90 ms (NOESY) and 30-70 ms (TOCSY). Spectral widths of 11,111 Hz and 5555 Hz were used in the acquisition (t2) and indirect (t1) dimensions, respectively. TOCSY experiments employed the DIPSI-2rc mixing sequence (J. Cavanaugh, M. Rance, J. Magn. Reson. Serv. A., 105:328 (1993)).

[3] = system: syncytia formation between Chinese hamster ovary cell expressing HXB2 envelope and HeLa-CD4-LTR-Beta-gal cells; conditions: two additional N-terminal lysines vs parent D-peptide
Protocol: In each instance, a blocking group (e.g., an acetyl group) was present at the N terminus and a CONH2 (amide) was present at the C-terminus.
Inhibition of cell/cell fusion (i.e., syncytia formation) was assayed by co-culturing Chinese hamster ovary cell expressing HXB2 envelope (K. Kozarsky, et al., J. Acquir. Immune. Defic. Syndr., 2:163 (1989) and the HeLa-CD4-LTR-Beta-gal cells (M. Emerman, NIH AIDS Reagent program) in the presence of varying concentration of peptide. When mixed, these cells form syncytia, or multi-nucleated cells, which express β-galactosidase. Approximately twenty hours after co-culturing the cells, the monolayers were stained with 5-bromo-4-chloro-3-indolyl-β-D-galactoside to visualize the syncytia. The syncytia are visualized with a microscope and counted manually (a syncytia is scored as a fused cell containing three or more nuclei). The IC50 was calculated from fitting the data to a Langmuir equation [y=k/(1+[peptide]/IC50)+x], where y=number of syncytia and k and x are scaling constants.

[4] = system: HIV-1; conditions: Phase I clinical trial; cited from earlier work

Row | Substance | binding to the hydrophobic pocket of IQN17 [2] | also measured
1 | Ac-GACEARHREWAWLCAA-CONH2 (Ac-G[dA][dC][dE][dA][dR][dH][dR][dE][dW][dA][dW][dL][dC][dA][dA]-NH2; disulfide 3-14 (inferred)) [Peptide D10pep1] | contact the pocket with very similar binding interfaces | inhibition of infection of cells [1]: inhibit infection of cells
2 | Ac-GACSRSQPEWEWLCAA-CONH2 (Ac-G[dA][dC][dS][dR][dS][dQ][dP][dE][dW][dE][dW][dL][dC][dA][dA]-NH2; disulfide 3-14 (inferred)) [Peptide D10pep6] | contact the pocket with very similar binding interfaces | 
3 | Ac-KKGACEARHREWAWLCAA-CONH2 (Ac-KKG[dA][dC][dE][dA][dR][dH][dR][dE][dW][dA][dW][dL][dC][dA][dA]-NH2; disulfide 5-16 (inferred); not fully specified (residues 1, 2); printed as Ac-KKGACEARHREWAWLCAA-CONH2) [Peptide D10pep1a] | broader peaks and dramatically different chemical shifts | IC50 for inhibition of syncytia formation relative to parent peptide without the added lysines [3]: approximately 2 fold
4 | Ac-KKGACGLGQEEWFWLCAA-CONH2 (Ac-KKG[dA][dC]G[dL]G[dQ][dE][dE][dW][dF][dW][dL][dC][dA][dA]-NH2; disulfide 5-16 (inferred); not fully specified (residues 1, 2); printed as Ac-KKGACGLGQEEWFWLCAA-CONH2) [Peptide D10pep3] | contact the pocket with very similar binding interfaces | 
5 | Ac-KKGACMRGEWEWSWLCAA-CONH2 (Ac-KKG[dA][dC][dM][dR]G[dE][dW][dE][dW][dS][dW][dL][dC][dA][dA]-NH2; disulfide 5-16 (inferred); not fully specified (residues 1, 2); printed as Ac-KKGACMRGEWEWSWLCAA-CONH2) [Peptide D10pep10] | contact the pocket with very similar binding interfaces | 
6 | Ac-KKGACPPLNKEWAWLCAA-CONH2 (Ac-KKG[dA][dC][dP][dP][dL][dN][dK][dE][dW][dA][dW][dL][dC][dA][dA]-NH2; disulfide 5-16 (inferred); not fully specified (residues 1, 2); printed as Ac-KKGACPPLNKEWAWLCAA-CONH2) [Peptide D10pep12] | contact the pocket with very similar binding interfaces | 
7 | enfuvirtide |  | antiviral activity in vivo [4]: reduced viral loads
